Source: BindingDB's records for doi:10.1016/j.bmcl.2004.04.065 (Eli Lilly, 2004)
pIC50: −log10 of the molar value.

The compounds below were run against TGF-beta receptor type-1 (assay: Inhibitory activity against TGF-beta type I receptor).
`c1ccc(-c2nn3c(c2-c2ccnc4ccccc24)CCC3)nc1` [4-(2-(pyridin-2-yl)-5,6-dihydro-4H-pyrrolo[1,2-b]pyrazol-3-yl)quinoline] gave a pIC50 of 6.98. For `Fc1ccc(-c2nn3c(c2-c2ccnc4ccccc24)CCC3)nc1` [4-[2-(5-Fluoro-pyridin-2-yl)-5,6-dihydro-4H-pyrrolo[1,2-b]pyrazol-3-yl]-quinoline], the pIC50 was 6.82. `CCc1cccc(-c2nn3c(c2-c2ccnc4ccccc24)CCC3)n1` [4-[2-(6-Ethyl-pyridin-2-yl)-5,6-dihydro-4H-pyrrolo[1,2-b]pyrazol-3-yl]-quinoline] showed a pIC50 of 7.15. For `CCS(=O)(=O)c1ccc2c(-c3c(-c4ccccn4)nn4c3CCC4)ccnc2c1` [7-Ethanesulfonyl-4-(2-pyridin-2-yl-5,6-dihydro-4H-pyrrolo[1,2-b]pyrazol-3-yl)-quinoline], the pIC50 was 5.03. `CCSc1ccc2c(-c3c(-c4ccccn4)nn4c3CCC4)ccnc2c1` [7-Ethylsulfanyl-4-(2-pyridin-2-yl-5,6-dihydro-4H-pyrrolo[1,2-b]pyrazol-3-yl)-quinoline] was tested, and the pIC50 was 6.96. `Cc1cccc(-c2nn3c(c2-c2ccnc4cc(Cl)ccc24)CCC3)n1` [7-chloro-4-(2-(6-methylpyridin-2-yl)-5,6-dihydro-4H-pyrrolo[1,2-b]pyrazol-3-yl)quinoline] was tested, and the pIC50 was 7.32.
